Experiment in all cases: growth of human tumour cells (NCI), 48 h
Experiment [1] relates to ACHN renal.
Experiment [2] concerns CAKI-1 renal.
Experiment [3] relates to CCRF-CEM leukemia.
In experiment [4] the test system is DU-145 prostate.
For experiment [5], the system named is HCT-116 colon.
Experiment [6] deals with MDA-MB-435.
The test system of experiment [7] is SF-295 CNS.
In experiment [8] the test system is SNB-19 CNS.
The test system of experiment [9] is U251 CNS.
The test system of experiment [10] is UO-31 renal.

“And” between values parts separate entries of the source, which are not always exact repeats. Equal entries are not always repeated.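 Five compound concentrations were applied to cells in 96-well plates for 48 hours; endpoints were derived by simple linear interpolation of the resulting dose-response curve. GI50 is the concentration that inhibits growth by half. TGI: total growth inhibition.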

For `O=C(Nc1ccccc1/C=C/c1n[nH]c2ccccc12)c1ccccc1`, the GI50 in [1] is 7.71 µM; in experiment [2] it was 2.98 µM; in [3], 4.05 µM; in [4], 2.6 µM; in experiment [5], 2.28 µM; in experiment [6] it was 1.97 µM. The GI50 in [7] was 2.13 µM; in [8], 5.93 µM; in experiment [9] it was 1.72 µM; in [10] it was 4.14 µM. The TGI in [1] was 20.1 µM; in experiment [2], 16.9 µM; in experiment [3], 22.3 µM; in [4] it was 8.23 µM; in [5] it was 10.5 µM; in experiment [6], 13.5 µM. Further, the TGI was found to be 5.57 µM in [7], 22.5 µM in [8], 3.75 µM in [9] and 19.3 µM in [10].

Consider `CN1CCN(CCCOC(=O)c2c3c(n4ccccc24)C(=O)c2ncccc2C3=O)CC1`, for which the GI50 is less than 0.01 µM in experiment [1]; less than 0.01 µM in experiment [2]; 0.041 µM in experiment [3]; less than 0.01 µM in [4]; less than 0.01 µM in [5]; 0.0142 µM in [6]. The GI50 in experiment [7] is less than 0.0117 µM; in [8], less than 0.01 µM; in experiment [9], less than 0.01 µM; in experiment [10], less than 0.01 µM. In addition, the TGI was 0.0154 µM in [1]; 0.366 µM in experiment [2]; greater than 30.4 µM in [3]; 1.3 µM in [4]; 2.91 µM in experiment [5]; 0.162 µM in [6]. The results for the TGI in experiment [7], in experiment [8] and in experiment [9] were 0.199 µM, 1.45 µM and 0.0768 µM, respectively.

Turning to `C=C1C(=O)O[C@@H]2C[C@@]3(C)CCC[C@H](C)C3=C[C@H]12` (tested in a mixture with another compound), the TGI was 6.98 µM in experiment [1]; 3.57 µM in experiment [2]; greater than 100 µM in [3]; 8.67 µM in experiment [4]; 2.93 µM in experiment [5]; 3.72 µM in experiment [6]. The TGI was determined as 24.6 µM in experiment [7], 22.4 µM in experiment [8], 9.93 µM in experiment [9] and 3.57 µM in experiment [10].

For the compound `COc1cc(-c2csc(NC(=O)Nc3ccc(Cl)cc3)n2)cc(OC)c1OC`, the GI50 in experiment [1] was 2.53 µM; in experiment [2] it was 2.91 µM; in [3], 3.44 µM; in [4], 3.4 µM; in experiment [5] it was 2.83 µM; in experiment [6] it was 2.17 µM. For the same compound, the GI50 in experiment [7] is 2.51 µM; in experiment [8] it was 3.78 µM; in [9] it was 3.35 µM; in experiment [10], 2.35 µM. Besides, the TGI in experiment [1] was 7.35 µM; in experiment [2], 11.1 µM; in [3], greater than 49.9 µM; in [4], 17.3 µM; in experiment [5], 8.12 µM; in experiment [6], 5.88 µM. Besides, the TGI stood at 8.45 µM in experiment [7], 30.2 µM in experiment [8], 13.1 µM in [9] and 7.68 µM in experiment [10].

For the compound `CC[C@@H]1C(=O)N(C)c2cnc(Nc3ccc(C(=O)NC4CCC(N5CCN(CC6CC6)CC5)CC4)cc3OC)nc2N1C(C)C` (stereo not given in full), the GI50 in experiment [1] was 0.305 µM and 0.222 µM; in experiment [2], 0.109 µM and 0.39 µM; in [3] it was 0.00974 µM and < 0.01 µM; in [4], 0.0118 µM and 0.0379 µM; in experiment [5], 0.0136 µM and 0.022 µM; in [6] it was less than 0.01 µM. Besides, the GI50 was 0.0353 µM and 0.0406 µM in experiment [7]; 0.0356 µM and 0.0566 µM in experiment [8]; 0.0263 µM and 0.0276 µM in [9]; 0.234 µM and 0.345 µM in experiment [10]. In addition, the TGI is > 10 µM and 13.6 µM in [1]; > 10 µM and 10.7 µM in experiment [2]; > 7.37 µM and 4.22 µM in experiment [3]; > 10 µM and 16.8 µM in experiment [4]; > 3.83 µM and 1.68 µM in [5]; 0.0134 µM in experiment [6]. For the same compound, the TGI in [7] is 2.51 µM and 2.44 µM; in [8] it was > 10 µM and 18 µM; in experiment [9], > 7.97 µM and 2.14 µM; in [10], > 10 µM and 7.53 µM.

As for `COc1ccc2c(c1[N+](=O)[O-])CC[C@@H]1[C@@H]2CC[C@]2(C)C(=O)CC[C@@H]12`, the GI50 is 424 µM in [1]; 660 µM in experiment [2]; greater than 1000 µM in experiment [3]; greater than 939 µM in experiment [4]; greater than 1000 µM in experiment [5]; greater than 1000 µM in experiment [6]. The GI50 in experiment [7] is 342 µM; in experiment [8] it was 457 µM; in experiment [9] it was 476 µM; in experiment [10], greater than 824 µM. Further, the TGI was greater than 1000 µM in experiment [1]; greater than 1000 µM in experiment [2]; greater than 1000 µM in experiment [4]; greater than 1000 µM in experiment [6]; greater than 968 µM in [7]; greater than 1000 µM in [9]. Further, in experiment [10], the TGI was greater than 1000 µM.

`C[C@]12CC[C@H]3[C@@H](CCC4=CC(=O)CC[C@@]43C)[C@]1(O)CC[C@]2(O)C(=O)CO`: the TGI in experiment [1], in experiment [2], in [3], in experiment [4], in [5] and in experiment [6] was greater than 100 µM each time. Besides, the TGI in experiment [7], in [8], in [9] and in experiment [10] was greater than 100 µM throughout.

For the compound `CC(=O)Nc1ccc(CC[C@H]2CCC/C=C/[C@@H]3C[C@H](O)C[C@H]3[C@H](O)/C=C/C(=O)O2)cc1`, the GI50 in experiment [1] is 0.375 µM; in experiment [2], 0.361 µM; in experiment [3], 0.32 µM; in [4], 0.366 µM; in [5], 0.184 µM; in [6] it was 0.151 µM. The GI50 in experiment [7] was 0.201 µM; in experiment [8], 0.231 µM; in [9], 0.304 µM; in [10] it was 0.316 µM. Further, the TGI in experiment [1] is greater than 47.2 µM; in [2], greater than 21.2 µM; in [3], greater than 100 µM; in [4] it was 4.2 µM; in experiment [5] it was 0.389 µM; in experiment [6] it was greater than 100 µM. The TGI in [7], in experiment [8] and in experiment [9] was greater than 100 µM each time.

Values taken from PubChem BioAssay (NCI).
